Experimental data as given in publication PMC10590419, “Structural and mechanistic insights into the inhibition of respiratory syncytial virus polymerase by a non-nucleoside inhibitor” (Communications Biology, 2023).
Read-outs that look alike come from different tables or passages of the source.

Biological target: recombinant RSV L+P (Human respiratory syncytial virus A, UniProt P28887)
Assay: Primed single nucleotide incorporation (SNI) gel assay, recombinant RSV L+P
Type: biochemical, Human RSV (strain A2)
Procedure: RNA polymerase reaction samples consisted of 0.2 μM recombinant RSV L-P polymerase, 0.2 μM of an RNA template (Le11 or Tr14), and 400 μM of a short primer (sequences as indicated in the figures), mixed in a buffer containing 50 mM Tris pH 7.4, 2 mM dithiothreitol and 6 mM MgCl2. For the assay in Fig. 1d, reactions were started by adding 100 nM [α-^32P]GTP (3000 Ci/mmol) tracer and incubated at 30 °C for 10 min. […] Reactions were stopped by adding an equal volume of gel loading buffer containing 90% formamide, 50 mM EDTA, 0.05% Xylene Cyanol, and Bromophenol Blue. Samples were denatured at 95 °C for 5 min and run on a 22.5% polyacrylamide urea sequencing gel at 80 W. The gel was transferred onto a Whatman cellulose chromatography paper (Millipore Sigma) and dried on a gel dryer (Bio-Rad) for 1 h. The dried gel was exposed to a phosphor-screen, scanned on a Typhoon phosphorimager (GE Healthcare), and quantified using ImageQuant (GE Healthcare).

[1] = 5 µM, le-11, +1 site, replicates, 5 µM
[2] = 5 µM, le-11, +3 site, replicates, 5 µM
[3] = 5 µM, tr-14, +1 site, replicates, 5 µM
[4] = le-11, +1 site, 0.00390625 uM, replicates, 0.00390625 µM
[5] = le-11, +1 site, 0.0078125 uM, replicates, 0.0078125 µM
[6] = le-11, +1 site, 0.015625 uM, replicates, 0.015625 µM
[7] = le-11, +1 site, 0.03125 uM, replicates, 0.03125 µM
[8] = le-11, +1 site, 0.0625 uM, replicates, 0.0625 µM
[9] = le-11, +1 site, 0.125 uM, replicates, 0.125 µM
[10] = le-11, +1 site, 0.25 uM, replicates, 0.25 µM
[11] = le-11, +1 site, 0.5 uM, replicates, 0.5 µM

Sequence of recombinant RSV L+P (P28887 whole entry): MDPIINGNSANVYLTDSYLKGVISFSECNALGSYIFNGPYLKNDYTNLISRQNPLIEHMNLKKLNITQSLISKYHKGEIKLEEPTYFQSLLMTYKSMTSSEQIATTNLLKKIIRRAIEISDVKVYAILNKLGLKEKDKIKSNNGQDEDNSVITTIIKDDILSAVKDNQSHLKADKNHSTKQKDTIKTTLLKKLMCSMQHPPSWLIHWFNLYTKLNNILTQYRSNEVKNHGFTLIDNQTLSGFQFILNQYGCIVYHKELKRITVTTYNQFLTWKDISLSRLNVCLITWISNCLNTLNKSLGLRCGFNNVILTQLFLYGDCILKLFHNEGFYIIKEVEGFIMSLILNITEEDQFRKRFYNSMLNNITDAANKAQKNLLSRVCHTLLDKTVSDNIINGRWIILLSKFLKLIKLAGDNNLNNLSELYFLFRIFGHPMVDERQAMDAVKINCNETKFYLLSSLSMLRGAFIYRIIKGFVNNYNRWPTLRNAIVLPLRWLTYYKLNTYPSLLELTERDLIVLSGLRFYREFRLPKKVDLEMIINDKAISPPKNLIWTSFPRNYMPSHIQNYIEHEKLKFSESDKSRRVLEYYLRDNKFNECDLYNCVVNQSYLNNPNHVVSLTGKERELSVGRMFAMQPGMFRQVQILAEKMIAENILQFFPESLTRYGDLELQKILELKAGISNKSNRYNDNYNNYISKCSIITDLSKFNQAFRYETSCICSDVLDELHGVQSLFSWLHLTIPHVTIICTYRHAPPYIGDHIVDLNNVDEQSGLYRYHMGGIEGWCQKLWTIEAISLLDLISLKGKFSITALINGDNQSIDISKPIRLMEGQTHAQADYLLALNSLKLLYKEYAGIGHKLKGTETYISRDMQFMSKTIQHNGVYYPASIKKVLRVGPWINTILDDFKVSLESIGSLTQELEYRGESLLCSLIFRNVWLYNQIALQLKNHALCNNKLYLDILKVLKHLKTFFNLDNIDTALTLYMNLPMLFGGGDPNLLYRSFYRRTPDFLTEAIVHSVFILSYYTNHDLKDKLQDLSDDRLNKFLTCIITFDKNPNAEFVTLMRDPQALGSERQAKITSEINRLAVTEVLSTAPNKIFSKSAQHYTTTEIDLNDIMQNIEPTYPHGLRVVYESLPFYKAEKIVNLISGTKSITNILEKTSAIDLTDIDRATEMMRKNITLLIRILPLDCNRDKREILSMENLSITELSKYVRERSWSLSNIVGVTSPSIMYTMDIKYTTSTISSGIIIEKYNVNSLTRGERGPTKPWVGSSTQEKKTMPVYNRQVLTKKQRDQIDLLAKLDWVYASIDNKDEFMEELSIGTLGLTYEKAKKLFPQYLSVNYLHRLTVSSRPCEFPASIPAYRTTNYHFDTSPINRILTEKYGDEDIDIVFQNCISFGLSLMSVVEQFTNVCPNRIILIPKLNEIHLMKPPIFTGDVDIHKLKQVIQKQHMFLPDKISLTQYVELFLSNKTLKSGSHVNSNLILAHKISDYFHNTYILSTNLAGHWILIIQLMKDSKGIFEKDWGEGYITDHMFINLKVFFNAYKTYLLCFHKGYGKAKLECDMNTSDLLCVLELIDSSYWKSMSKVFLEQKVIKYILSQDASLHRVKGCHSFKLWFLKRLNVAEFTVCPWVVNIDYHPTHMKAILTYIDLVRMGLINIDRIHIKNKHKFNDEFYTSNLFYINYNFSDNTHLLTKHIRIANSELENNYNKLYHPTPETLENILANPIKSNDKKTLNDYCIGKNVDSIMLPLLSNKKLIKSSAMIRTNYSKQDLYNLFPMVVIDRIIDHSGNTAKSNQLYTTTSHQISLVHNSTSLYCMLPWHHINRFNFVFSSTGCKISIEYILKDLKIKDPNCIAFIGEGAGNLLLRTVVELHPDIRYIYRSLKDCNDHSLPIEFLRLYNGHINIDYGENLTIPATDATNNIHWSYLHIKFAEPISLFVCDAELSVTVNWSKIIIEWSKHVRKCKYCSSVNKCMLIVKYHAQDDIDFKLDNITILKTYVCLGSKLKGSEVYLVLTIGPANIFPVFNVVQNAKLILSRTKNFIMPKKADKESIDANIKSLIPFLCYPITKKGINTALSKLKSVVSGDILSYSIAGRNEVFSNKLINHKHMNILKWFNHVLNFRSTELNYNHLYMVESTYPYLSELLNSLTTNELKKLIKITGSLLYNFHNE
Sequence of recombinant RSV L+P (P03421 whole entry, further chain): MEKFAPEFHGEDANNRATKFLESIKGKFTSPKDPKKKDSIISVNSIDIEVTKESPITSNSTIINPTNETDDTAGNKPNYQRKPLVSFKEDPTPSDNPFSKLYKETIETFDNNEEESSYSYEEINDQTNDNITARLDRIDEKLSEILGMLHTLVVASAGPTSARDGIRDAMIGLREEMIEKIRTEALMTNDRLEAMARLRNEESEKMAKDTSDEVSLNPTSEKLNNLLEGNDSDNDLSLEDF

Compound: COc1cc(C(=O)NC[C@](O)(c2cc(C(C)(C)O)c(F)c(-c3ccc(F)cc3)n2)C(F)(F)F)cc2cc(C)nnc12 [JNJ-8003]
- inhibition at 5 µM (5 µM, le-11, +1 site, N 2, read-out: % inhibition of SNI, AC>ACG, average): 88.8%
- inhibition at 5 µM (5 µM, le-11, +1 site, N 2, read-out: % inhibition of SNI, ACG>ACGC, average): 2.75%
- inhibition at 5 µM (5 µM, le-11, +1 site, N 2, read-out: % inhibition of SNI, ACGC>ACGCG, average): 94.8%
- inhibition at 5 µM (5 µM, le-11, +1 site, N 2, read-out: % inhibition of SNI, ACGCG>ACGCGA, average): 96.9%
- inhibition at 5 µM (5 µM, le-11, +1 site, N 2, read-out: % inhibition of SNI, ACGCGA>ACGCGAA, average): 85.3%
- % inhibition of SNI, AC>ACG [1]: 88.48%
- % inhibition of SNI, ACGC>ACGCG [1]: 96.78%
- % inhibition of SNI, ACGCG>ACGCGA [1]: 98.45%
- % inhibition of SNI, ACGCGA>ACGCGAA [1]: 88.02%
- inhibition at 5 µM (5 µM, le-11, +1 site, replicates, read-out: % inhibition of SNI, AC>ACG): 89%
- inhibition at 5 µM (5 µM, le-11, +1 site, replicates, read-out: % inhibition of SNI, ACGC>ACGCG): 92.7%
- inhibition at 5 µM (5 µM, le-11, +1 site, replicates, read-out: % inhibition of SNI, ACGCG>ACGCGA): 95.4%
- inhibition at 5 µM (5 µM, le-11, +1 site, replicates, read-out: % inhibition of SNI, ACGCGA>ACGCGAA): 82.6%
- inhibition at 5 µM (5 µM, le-11, +3 site, N 2, read-out: % inhibition of SNI, GC>GCG, average): 96.5%
- inhibition at 5 µM (5 µM, le-11, +3 site, N 2, read-out: % inhibition of SNI, GCG>GCGA, average): 74.8%
- inhibition at 5 µM (5 µM, le-11, +3 site, N 2, read-out: % inhibition of SNI, GCGA>GCGAA, average): 97.6%
- inhibition at 5 µM (5 µM, le-11, +3 site, N 2, read-out: % inhibition of SNI, GCGAA>GCGAAA, average): 93.8%
- % inhibition of SNI, GC>GCG [2]: 97.71%
- % inhibition of SNI, GCG>GCGA [2]: 79.85%
- % inhibition of SNI, GCGA>GCGAA [2]: 98.25%
- % inhibition of SNI, GCGAA>GCGAAA [2]: 91.04%
- inhibition at 5 µM (5 µM, le-11, +3 site, replicates, read-out: % inhibition of SNI, GC>GCG): 95.3%
- inhibition at 5 µM (5 µM, le-11, +3 site, replicates, read-out: % inhibition of SNI, GCG>GCGA): 69.8%
- inhibition at 5 µM (5 µM, le-11, +3 site, replicates, read-out: % inhibition of SNI, GCGA>GCGAA): 97%
- inhibition at 5 µM (5 µM, le-11, +3 site, replicates, read-out: % inhibition of SNI, GCGAA>GCGAAA): 96.5%
- inhibition at 5 µM (5 µM, tr-14, +1 site, N 2, read-out: % inhibition of SNI, AC>ACG, average): 88.2%
- inhibition at 5 µM (5 µM, tr-14, +1 site, N 2, read-out: % inhibition of SNI, ACG>ACGA, average): 8.03%
- inhibition at 5 µM (5 µM, tr-14, +1 site, N 2, read-out: % inhibition of SNI, ACGA>ACGAG, average): 95%
- inhibition at 5 µM (5 µM, tr-14, +1 site, N 2, read-out: % inhibition of SNI, ACGAG>ACGAGA, average): 88.8%
- inhibition at 5 µM (5 µM, tr-14, +1 site, N 2, read-out: % inhibition of SNI, ACGAGA>ACGAGAA, average): 90%
- % inhibition of SNI, AC>ACG [3]: 84.25%
- % inhibition of SNI, ACGA>ACGAG [3]: 93.02%
- % inhibition of SNI, ACGAG>ACGAGA [3]: 89.36%
- % inhibition of SNI, ACGAGA>ACGAGAA [3]: 89.66%
- inhibition at 5 µM (5 µM, tr-14, +1 site, replicates, read-out: % inhibition of SNI, AC>ACG): 92.2%
- inhibition at 5 µM (5 µM, tr-14, +1 site, replicates, read-out: % inhibition of SNI, ACGA>ACGAG): 96.9%
- inhibition at 5 µM (5 µM, tr-14, +1 site, replicates, read-out: % inhibition of SNI, ACGAG>ACGAGA): 88.2%
- inhibition at 5 µM (5 µM, tr-14, +1 site, replicates, read-out: % inhibition of SNI, ACGAGA>ACGAGAA): 90.3%
- SNI to the 3-mer primer from the +1 site (in words) (le and tr promoter RNA): did not inhibit
- pACG formation, % inhibition [4]: 21.7616%
- pACGCG formation, % inhibition [4]: 22.5312%
- inhibition at 0.00390625 µM (le-11, +1 site, 0.00390625 uM, replicates, read-out: pACG formation, % inhibition): 15.7%
- inhibition at 0.00390625 µM (le-11, +1 site, 0.00390625 uM, replicates, read-out: pACGC formation, % inhibition): 22.3%
- inhibition at 0.00390625 µM (le-11, +1 site, 0.00390625 uM, replicates, read-out: pACGCG formation, % inhibition): 29.7%
- pACG formation, % inhibition [5]: 22.0299%
- pACGCG formation, % inhibition [5]: 31.4378%
- inhibition at 0.0078125 µM (le-11, +1 site, 0.0078125 uM, replicates, read-out: pACG formation, % inhibition): 27.9%
- inhibition at 0.0078125 µM (le-11, +1 site, 0.0078125 uM, replicates, read-out: pACGC formation, % inhibition): 23.6%
- inhibition at 0.0078125 µM (le-11, +1 site, 0.0078125 uM, replicates, read-out: pACGCG formation, % inhibition): 35.9%
- pACG formation, % inhibition [6]: 38.1202%
- pACGCG formation, % inhibition [6]: 40.5036%
- inhibition at 0.015625 µM (le-11, +1 site, 0.015625 uM, replicates, read-out: pACG formation, % inhibition): 38.1%
- inhibition at 0.015625 µM (le-11, +1 site, 0.015625 uM, replicates, read-out: pACGC formation, % inhibition): 28%
- inhibition at 0.015625 µM (le-11, +1 site, 0.015625 uM, replicates, read-out: pACGCG formation, % inhibition): 35%
- pACG formation, % inhibition [7]: 56.5591%
- pACGCG formation, % inhibition [7]: 63.5179%
- inhibition at 0.03125 µM (le-11, +1 site, 0.03125 uM, replicates, read-out: pACG formation, % inhibition): 61.9%
- inhibition at 0.03125 µM (le-11, +1 site, 0.03125 uM, replicates, read-out: pACGC formation, % inhibition): 28.5%
- inhibition at 0.03125 µM (le-11, +1 site, 0.03125 uM, replicates, read-out: pACGCG formation, % inhibition): 63.6%
- pACG formation, % inhibition [8]: 90.7902%
- pACGCG formation, % inhibition [8]: 93.3045%
- inhibition at 0.0625 µM (le-11, +1 site, 0.0625 uM, replicates, read-out: pACG formation, % inhibition): 93.3%
- inhibition at 0.0625 µM (le-11, +1 site, 0.0625 uM, replicates, read-out: pACGC formation, % inhibition): 29.3%
- inhibition at 0.0625 µM (le-11, +1 site, 0.0625 uM, replicates, read-out: pACGCG formation, % inhibition): 92.5%
- pACG formation, % inhibition [9]: 92.6859%
- pACGCG formation, % inhibition [9]: 94.8621%
- inhibition at 0.125 µM (le-11, +1 site, 0.125 uM, replicates, read-out: pACG formation, % inhibition): 94.3%
- inhibition at 0.125 µM (le-11, +1 site, 0.125 uM, replicates, read-out: pACGC formation, % inhibition): 30.8%
- inhibition at 0.125 µM (le-11, +1 site, 0.125 uM, replicates, read-out: pACGCG formation, % inhibition): 94.8%
- pACG formation, % inhibition [10]: 91.0112%
- pACGCG formation, % inhibition [10]: 93.3897%
- inhibition at 0.25 µM (le-11, +1 site, 0.25 uM, replicates, read-out: pACG formation, % inhibition): 94.2%
- inhibition at 0.25 µM (le-11, +1 site, 0.25 uM, replicates, read-out: pACGC formation, % inhibition): 17.7%
- inhibition at 0.25 µM (le-11, +1 site, 0.25 uM, replicates, read-out: pACGCG formation, % inhibition): 95.2%
- pACG formation, % inhibition [11]: 89.7151%
- pACGCG formation, % inhibition [11]: 94.5159%
